Results reported in patent US20150105252A1, “SUBSTITUTED PYRAZOLES AS HERBICIDES” (E I DU PONT DE NEMOURS AND COMPANY, priority 2013, published 2015).

Key:
morningglory = experiment: Test F preemergence; assay type: in vivo, Ipomoea coccinea; conditions: Preemergence, scale 0 to 100
Description: Seeds of plant species selected from corn (Zea mays), soybean (Glycine max), velvetleaf (Abutilon theophrasti), lambsquarters (Chenopodium album), wild poinsettia (Euphorbia heterophylla), pigweed, palmer (palmer pigweed, Amaranthus palmeri), common waterhemp (Amaranthus rudis), surinam grass (Brachiaria decumbens), large crabgrass (Digitaria sanguinalis), crabgrass, Brazil (Brazilian crabgrass, Digitaria horizontalis), fall panicum (Panicum dichotomiflorum), giant foxtail (Setaria faberii), green foxtail (Setaria viridis), goosegrass (Eleusine indica), johnsongrass (Sorghum halepense), common ragweed (Ambrosia elation), barnyardgrass (Echinochloa crus-galli), southern sandbur (Cenchrus echinatus), arrowleaf sida (Sida rhombifolia), Italian ryegrass (Lolium multiflorum), dayflower, VA (Virginia (VA) dayflower, Commelina virginica), field bindweed (Convolvulus arvensis), cocklebur (common cocklebur, Xanthium strumarium), morningglory (Ipomoea coccinea), nightshade (eastern black nightshade, Solanum ptycanthum), kochia (Kochia scoparia), yellow nutsedge (Cyperus esculentus), and hairy beggarticks (Bidens pilosa), were planted into a silt loam soil and treated preemergence with test chemicals formulated in a non-phytotoxic solvent mixture which included a surfactant.
At the same time, plants from these crop and weed species and also horseweed (Canada horseweed, Conyza canadensis), smartweed (ladysthumb smartweed, Polygonum persicaria), waterhemp_RES1, (ALS & Triazine resistant common waterhemp, Amaranthus rudis), and waterhemp_RES2, (ALS & HPPD resistant common waterhemp, Amaranthus rudis) were treated with postemergence applications of test chemicals formulated in the same manner. Plants ranged in height from 2 to 18 cm for postemergence treatments (1- to 4-leaf stage). Treated plants and controls were maintained in a greenhouse for 14 to 21 days, after which time all species were compared to controls and visually evaluated. Plant response ratings, summarized in Table F, are based on a scale of 0 to 100 where 0 is no effect and 100 is complete control. A dash (-) response means no test result.

windgrass [1] = experiment: Test D preemergence; assay type: in vivo, Apera spica-venti; conditions: for Plant response rating, Windgrass: Preemergence, scale 0 to 100
Method in brief: (§1)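 Visual 0–100 control ratings at 14–21 days in a controlled growth environment. Application preemergence onto silt loam or postemergence onto 2–18 cm seedlings, using a non-phytotoxic solvent formulation with surfactant.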

buckwheat, wild [2] = experiment: Test D preemergence; assay type: in vivo, Polygonum convolvulus; conditions: for Plant response rating, Buckwheat, Wild: Preemergence, scale 0 to 100
Method in brief: as §1

field poppy = experiment: Test D postemergence; assay type: in vivo, Papaver rhoeas; conditions: scale 0 to 100
Method in brief: as §1

deadnettle [3] = experiment: Test D preemergence; assay type: in vivo, Lamium amplexicaule; conditions: for Plant response rating, Deadnettle: Preemergence, scale 0 to 100
Method in brief: as §1

windgrass [4] = experiment: Test D postemergence; assay type: in vivo, Apera spica-venti; conditions: scale 0 to 100
Description: (§2) Seeds of plant species selected from bluegrass (annual bluegrass, Poa annua), blackgrass (Alopecurus myosuroides), canarygrass (littleseed canarygrass, Phalaris minor), chickweed (common chickweed, Stellaria media), galium (catchweed bedstraw, Galium aparine), bromegrass, downy (downy bromegrass, Bromus tectorum), field poppy (Papaver rhoeas), field violet (Viola arvensis), foxtail, green (green foxtail, Setaria viridis), deadnettle (henbit deadnettle, Lamium amplexicaule), ryegrass, Italian (Italian ryegrass, Lolium multiflorum), kochia (Kochia scoparia), lambsquarters (Chenopodium album), oilseed rape (Brassica napus), pigweed (redroot pigweed, Amaranthus retroflexus), chamomile (scentless chamomile, Matricaria inodora), speedwell (bird's-eye speedwell, Veronica persica), barley, spring (spring barley, Hordeum vulgare), wheat, spring (spring wheat, Triticum aestivum), buckwheat, wild (wild buckwheat, Polygonum convolvulus), mustard, wild (wild mustard, Sinapis arvensis), oat, wild (wild oat, Avena fatua), radish, wild (wild radish, Raphanus raphanistrum), windgrass (Apera spica-venti), Russian thistle (Salsola kali), barley, winter (winter barley, Hordeum vulgare), and wheat, winter (winter wheat, Triticum aestivum) were planted into a silt loam soil and treated preemergence with test chemicals formulated in a non-phytotoxic solvent mixture which included a surfactant.
(§3) At the same time, these species were planted in pots containing Redi-Earth® planting medium (Scotts Company, 14111 Scottslawn Road, Marysville, Ohio 43041) comprising spaghnum peat moss, vermiculite, wetting agent and starter nutrients and treated with postemergence applications of the test chemicals formulated in the same manner. Plants ranged in height from 2 to 18 cm (1- to 4-leaf stage). Treated plants and controls were maintained in a controlled growth environment for 14 to 21 days after which time all species were compared to controls and visually evaluated. Plant response ratings, summarized in Table D, are based on a scale of 0 to 100 where 0 is no effect and 100 is complete control. A dash (-) response means no test result.

pigweed = experiment: Test D postemergence; assay type: in vivo, Amaranthus retroflexus; conditions: scale 0 to 100
Description: as §2, §3

chickweed = experiment: Test D preemergence; assay type: in vivo, Stellaria media; conditions: for Plant response rating, Chickweed: Preemergence, scale 0 to 100
Description: as §2, §3

radish, wild = experiment: Test D postemergence; assay type: in vivo, Raphanus raphanistrum; conditions: scale 0 to 100
Description: as §2, §3

buckwheat, wild [5] = experiment: Test D postemergence; assay type: in vivo, Polygonum convolvulus; conditions: scale 0 to 100
Method in brief: as §1

deadnettle [6] = experiment: Test D postemergence; assay type: in vivo, Lamium amplexicaule; conditions: scale 0 to 100
Method in brief: as §1

bromegrass, downy = experiment: Test D postemergence; assay type: in vivo, Bromus tectorum; conditions: scale 0 to 100
Method in brief: as §1

mustard, wild = experiment: Test D postemergence; assay type: in vivo, Sinapis arvensis; conditions: scale 0 to 100
Method in brief: as §1

[7] = 16 g ai/ha, taken as preemergence

CCc1cc(C(=O)NCC(F)(F)F)nn1Cc1ccnc(Br)c1 [Compound 224]
Plant response rating, Morningglory (morningglory; 62 g ai/ha): 0
Plant response rating, Morningglory (morningglory; 125 g ai/ha): 0
Plant response rating, Morningglory (morningglory; 250 g ai/ha): 25

CCCc1cc(C(=O)NC2CC2)nn1Cc1cc(C(F)(F)F)nn1C [Compound 202]
Plant response rating, Windgrass (windgrass [1]; 62 g ai/ha): 55
Plant response rating, Windgrass (windgrass [1]; 125 g ai/ha): 75
Plant response rating, Windgrass (windgrass [1]; 250 g ai/ha): 100
Plant response rating, Buckwheat, Wild (buckwheat, wild [2]; 31 g ai/ha): 35
Plant response rating, Buckwheat, Wild (buckwheat, wild [2]; 62 g ai/ha): 60
Plant response rating, Buckwheat, Wild (buckwheat, wild [2]; 125 g ai/ha): 100
Plant response rating, Buckwheat, Wild (buckwheat, wild [2]; 250 g ai/ha): 100
Field Poppy plant response rating (field poppy; Postemergence, 31 g ai/ha): 50
Field Poppy plant response rating (field poppy; Postemergence, 125 g ai/ha): 50
Field Poppy plant response rating (field poppy; Postemergence, 250 g ai/ha): 75
Field Poppy plant response rating (field poppy; postemergence, 62 g ai/ha): 50
Plant response rating, Deadnettle (deadnettle [3]; 31 g ai/ha): 100
Plant response rating, Deadnettle (deadnettle [3]; 62 g ai/ha): 100
Plant response rating, Deadnettle (deadnettle [3]; 125 g ai/ha): 100
Plant response rating, Deadnettle (deadnettle [3]; 250 g ai/ha): 100
Windgrass plant response rating (windgrass [4]; Postemergence, 31 g ai/ha): 15
Windgrass plant response rating (windgrass [4]; Postemergence, 125 g ai/ha): 25
Windgrass plant response rating (windgrass [4]; Postemergence, 250 g ai/ha): 35
Windgrass plant response rating (windgrass [4]; postemergence, 62 g ai/ha): 15
Pigweed plant response rating (pigweed; Postemergence, 31 g ai/ha): 70
Pigweed plant response rating (pigweed; Postemergence, 125 g ai/ha): 80
Pigweed plant response rating (pigweed; Postemergence, 250 g ai/ha): 85
Pigweed plant response rating (pigweed; postemergence, 62 g ai/ha): 70
Plant response rating, Chickweed (chickweed; 31 g ai/ha): 100
Plant response rating, Chickweed (chickweed; 62 g ai/ha): 100
Plant response rating, Chickweed (chickweed; 125 g ai/ha): 100
Plant response rating, Chickweed (chickweed; 250 g ai/ha): 100
Radish, Wild plant response rating (radish, wild; Postemergence, 31 g ai/ha): 55
Radish, Wild plant response rating (radish, wild; Postemergence, 125 g ai/ha): 65
Radish, Wild plant response rating (radish, wild; Postemergence, 250 g ai/ha): 75
Radish, Wild plant response rating (radish, wild; postemergence, 62 g ai/ha): 55
Buckwheat, Wild plant response rating (buckwheat, wild [5]; Postemergence, 31 g ai/ha): 40
Buckwheat, Wild plant response rating (buckwheat, wild [5]; Postemergence, 125 g ai/ha): 70
Buckwheat, Wild plant response rating (buckwheat, wild [5]; Postemergence, 250 g ai/ha): 90
Buckwheat, Wild plant response rating (buckwheat, wild [5]; postemergence, 62 g ai/ha): 40
Deadnettle plant response rating (deadnettle [6]; Postemergence, 31 g ai/ha): 55
Deadnettle plant response rating (deadnettle [6]; Postemergence, 125 g ai/ha): 60
Deadnettle plant response rating (deadnettle [6]; Postemergence, 250 g ai/ha): 65
Deadnettle plant response rating (deadnettle [6]; postemergence, 62 g ai/ha): 55
Bromegrass, Downy plant response rating (bromegrass, downy; Postemergence, 31 g ai/ha): 25
Bromegrass, Downy plant response rating (bromegrass, downy; Postemergence, 125 g ai/ha): 35
Bromegrass, Downy plant response rating (bromegrass, downy; Postemergence, 250 g ai/ha): 35
Bromegrass, Downy plant response rating (bromegrass, downy; postemergence, 62 g ai/ha): 25
Mustard, Wild plant response rating (mustard, wild; Postemergence, 31 g ai/ha): 70
Mustard, Wild plant response rating (mustard, wild; Postemergence, 125 g ai/ha): 70
Mustard, Wild plant response rating (mustard, wild; Postemergence, 250 g ai/ha): 75
Mustard, Wild plant response rating (mustard, wild; postemergence, 62 g ai/ha): 70

O=C(NC1CC1)c1cc(CCF)n(Cc2ccnc(C(F)(F)F)c2)n1 [Compound 176]
Plant response rating (scale 0 to 100), Windgrass (windgrass [1]; [7]): 0
Plant response rating, Windgrass (windgrass [1]; 62 g ai/ha): 10
Plant response rating, Windgrass (windgrass [1]; 125 g ai/ha): 40
Plant response rating (scale 0 to 100), Buckwheat, Wild (buckwheat, wild [2]; [7]): 0
Plant response rating, Buckwheat, Wild (buckwheat, wild [2]; 31 g ai/ha): 15
Plant response rating, Buckwheat, Wild (buckwheat, wild [2]; 62 g ai/ha): 95
Plant response rating, Buckwheat, Wild (buckwheat, wild [2]; 125 g ai/ha): 85
Plant response rating, Field Poppy (field poppy; Postemergence, 16 g ai/ha): 45
Field Poppy plant response rating (field poppy; Postemergence, 31 g ai/ha): 50
Field Poppy plant response rating (field poppy; Postemergence, 125 g ai/ha): 65
Field Poppy plant response rating (field poppy; postemergence, 62 g ai/ha): 50
Plant response rating (scale 0 to 100), Deadnettle (deadnettle [3]; [7]): 0
Plant response rating, Deadnettle (deadnettle [3]; 31 g ai/ha): 20
Plant response rating, Deadnettle (deadnettle [3]; 62 g ai/ha): 80
Plant response rating, Deadnettle (deadnettle [3]; 125 g ai/ha): 100
Plant response rating, Windgrass (windgrass [4]; Postemergence, 16 g ai/ha): 5
Windgrass plant response rating (windgrass [4]; Postemergence, 31 g ai/ha): 15
Windgrass plant response rating (windgrass [4]; Postemergence, 125 g ai/ha): 25
Windgrass plant response rating (windgrass [4]; postemergence, 62 g ai/ha): 15
Plant response rating, Pigweed (pigweed; Postemergence, 16 g ai/ha): 55
Pigweed plant response rating (pigweed; Postemergence, 31 g ai/ha): 65
Pigweed plant response rating (pigweed; Postemergence, 125 g ai/ha): 70
Pigweed plant response rating (pigweed; postemergence, 62 g ai/ha): 65
Plant response rating (scale 0 to 100), Chickweed (chickweed; [7]): 10
Plant response rating, Chickweed (chickweed; 31 g ai/ha): 50
Plant response rating, Chickweed (chickweed; 62 g ai/ha): 85
Plant response rating, Chickweed (chickweed; 125 g ai/ha): 100
Radish, Wild plant response rating (radish, wild; Postemergence, 31 g ai/ha): 65
Radish, Wild plant response rating (radish, wild; Postemergence, 125 g ai/ha): 65
Radish, Wild plant response rating (radish, wild; postemergence, 62 g ai/ha): 65
Plant response rating, Buckwheat, Wild (buckwheat, wild [5]; Postemergence, 16 g ai/ha): 30
Buckwheat, Wild plant response rating (buckwheat, wild [5]; Postemergence, 31 g ai/ha): 55
Buckwheat, Wild plant response rating (buckwheat, wild [5]; Postemergence, 125 g ai/ha): 65
Buckwheat, Wild plant response rating (buckwheat, wild [5]; postemergence, 62 g ai/ha): 55
Plant response rating, Deadnettle (deadnettle [6]; Postemergence, 16 g ai/ha): 10
Deadnettle plant response rating (deadnettle [6]; Postemergence, 31 g ai/ha): 35
Deadnettle plant response rating (deadnettle [6]; Postemergence, 125 g ai/ha): 45
Deadnettle plant response rating (deadnettle [6]; postemergence, 62 g ai/ha): 35
Plant response rating, Bromegrass, Downy (bromegrass, downy; Postemergence, 16 g ai/ha): 10
Bromegrass, Downy plant response rating (bromegrass, downy; Postemergence, 31 g ai/ha): 25
Bromegrass, Downy plant response rating (bromegrass, downy; Postemergence, 125 g ai/ha): 30
Bromegrass, Downy plant response rating (bromegrass, downy; postemergence, 62 g ai/ha): 25
Plant response rating, Mustard, Wild (mustard, wild; Postemergence, 16 g ai/ha): 25
Mustard, Wild plant response rating (mustard, wild; Postemergence, 31 g ai/ha): 55
Mustard, Wild plant response rating (mustard, wild; Postemergence, 125 g ai/ha): 70
Mustard, Wild plant response rating (mustard, wild; postemergence, 62 g ai/ha): 55
